Some results are limits rather than exact numbers.

Our source for the IC50 values is US20230210999A1, “TARGETED PROTEASE DEGRADATION (TED) PLATFORM” (EUBULUS BIOTHERAPEUTICS INC., priority 2020, published 2023).

One assay deals with MV4;11 cells. The experiment in a line: Cell proliferation experiment (Alamar blue, 72 h), MV4;11. The assay is classed as cell-based, human. The conditions noted are these: Homo sapiens, MV4-11, 72 h, MV4;11 cells, 72 h; read-out: Inhibitory activity IC50 of tested compounds on MV4;11 cells. An outline of the steps: (§1)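 Cells were passaged at least twice, harvested in log phase and plated in 96 wells. Compound in complete medium was added at 5-fold gradient concentrations, duplicates per concentration. After 72 h culture, Alamar blue fluorescence was measured and IC50 fitted.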

A further assay concerns Daudi cells. The experiment in a line: Cell proliferation experiment, Daudi. The assay is classed as cell-based, human. The conditions noted are these: Homo sapiens, Daudi, 72 h, Daudi cells, 72 h; read-out: Inhibitory activity IC50 of tested compounds on Daudi cells. An outline of the steps:
as §1

The next assay relates to NCIH82 cells. The experiment in a line: Cell proliferation experiment, NCI-H82. The assay is classed as cell-based, human. The conditions noted are these: Homo sapiens, NCI-H82, 72 h, NCIH82 cells, 72 h; read-out: Inhibitory activity IC50 of tested compounds on NCIH82 cells. An outline of the steps: as §1
In another assay the test system is HT-29 cells. The experiment in a line: Cell proliferation experiment, HT-29. The assay is classed as cell-based. The conditions noted are these: Homo sapiens; HT-29 cells, 72 h; read-out: Inhibitory activity IC50 of tested compounds on HT-29 cells. The method, then: (§2) Reagents: RPMI-1640 medium, McCoy's 5A medium, IMDM medium, MEM medium, L-15 medium, fetal bovine serum. Penicillin-Streptomycin double antibody, trypsin, etc., 2-mercaptoethanol, NEAA, pyruvate, etc.
(§3) The cells were cultured in conventional ways, and the cells should be passed at least 2 generations before plating. Cells at the logarithmic growth phase were collected, prepared into single cell suspensions and counted. The concentration of cells was adjusted to the desired concentration, and cells were inoculated into a 96-well cell culture plate at 100 μl per well. 100 μL of complete medium of the test compound were added to each well, set up 2 duplicate wells for each concentration, and diluted with a 5-fold gradient, and continued to culture for 72 h. All cells were subjected to IC50 test for corresponding samples. The experimental results are shown in Test Example 4.
(§4) The fluorescence intensity of each well was detected using the Alarm blue method, and IC50 was calculated.
(§5) IC50 was calculated according to the following formula:
(§6) Y=Max+(Min−Max)/[1+(X/IC50)×Slope]
(§7) wherein Min, Max and Slope represent the minimum, maximum and slope respectively.

A further assay has as its system U-87MG cells. The experiment in a line: Cell proliferation experiment, U-87MG. The assay is classed as cell-based. Conditions: Homo sapiens; U-87MG cells, 72 h; read-out: Inhibitory activity IC50 of tested compounds on U-87MG cells. The method, then:
as §2, §3, §4, §5, §6, §7

Broadly, the IC50 is the concentration at which inhibition is half-maximal. In the case of `CC[C@@H]1C(=O)N(C)c2cnc(Nc3ccc(C(=O)NC4CCN(CCOCCN5CC(Nc6cccc7c6C(=O)N(C6CCC(=O)NC6=O)C7=O)C5)CC4)cc3OC)nc2N1C1CCCC1` (stereo partly drawn) [Compound 868], the IC50 in the assay on MV4;11 cells was 0.1 to 1 µM; in the assay on Daudi cells, 0.1 to 1 µM; with NCIH82 cells it was not above 1 µM; in the assay on HT-29 cells, more than 1 µM; with U-87MG cells it was 0.5 to 1 µM.
Regarding `CC[C@@H]1C(=O)N(C)c2cnc(Nc3ccc(C(=O)NC4CCN(CCOCCNCC#Cc5cccc6c5CN(C5CCC(=O)NC5=O)C6=O)CC4)cc3OC)nc2N1C1CCCC1` (stereo partly drawn) [Compound 873], the IC50 was not above 0.1 µM with MV4;11 cells; 0.1 to 1 µM in the assay on Daudi cells; not above 1 µM with NCIH82 cells; not above 0.3 µM with HT-29 cells; 0.1 to 0.5 µM with U-87MG cells.
The matching figures for `CC[C@@H]1C(=O)N(C)c2cnc(Nc3ccc(C(=O)NC4CCN(CCOCCNCCC(=O)NC(C(=O)N5C[C@H](O)C[C@H]5C(=O)NCc5ccc(-c6scnc6C)cc5)C(C)(C)C)CC4)cc3OC)nc2N1C1CCCC1` (stereo partly drawn) [Compound 858]: more than 1 µM, more than 1 µM, more than 1 µM, more than 1 µM and more than 1 µM.
As for `CC[C@@H]1C(=O)N(C)c2cnc(Nc3ccc(C(=O)NCCCC(N)C(=O)Nc4cccc5c4CN(C4CCC(=O)NC4=O)C5=O)cc3OC)nc2N1C1CCCC1` (stereo in doubt) [Compound 856], the IC50 is 0.1 to 1 µM in the assay on MV4;11 cells, more than 1 µM in the assay with Daudi cells, more than 1 µM with NCIH82 cells and more than 1 µM in the assay on U-87MG cells.
Regarding `CC[C@@H]1C(=O)N(C)c2cnc(Nc3ccc(C(=O)NCCCOCCCN(C)CCC#Cc4cccc5c4CN(C4CCC(=O)NC4=O)C5=O)cc3OC)nc2N1C1CCCC1` (stereo partly drawn) [Compound 913], the IC50 in the assay with MV4;11 cells is not above 0.1 µM; in the assay on Daudi cells, not above 0.1 µM; in the assay with NCIH82 cells, not above 1 µM; in the assay on HT-29 cells, 0.3 to 1 µM; in the assay with U-87MG cells it was not above 0.1 µM.
Regarding `CC[C@@H]1C(=O)N(C)c2cnc(Nc3ccc(C(=O)NCCOCCNCCC(=O)N[C@H](C(=O)N4C[C@H](O)C[C@H]4C(=O)NCc4ccc(-c5scnc5C)cc4)C(C)(C)C)cc3OC)nc2N1C1CCCC1` [Compound 853], the IC50 in the assay on MV4;11 cells, in the assay on Daudi cells, in the assay with NCIH82 cells, in the assay on HT-29 cells and with U-87MG cells was more than 1 µM in each case.
With `CC[C@@H]1C(=O)N(C)c2cnc(Nc3ccc(C(=O)NC4CN(CCCOCCCNCCC#Cc5cccc6c5CN(C5CCC(=O)NC5=O)C6=O)C4)cc3OC)nc2N1C1CCCC1` (stereo partly drawn) [Compound 931], the IC50 with MV4;11 cells is not above 0.1 µM; in the assay on Daudi cells, 0.1 to 1 µM; in the assay with NCIH82 cells, not above 1 µM; in the assay with HT-29 cells, more than 1 µM; in the assay with U-87MG cells, 0.5 to 1 µM.
In the case of `CC[C@@H]1C(=O)N(C)c2cnc(Nc3ccc(C(=O)NC4CCN(CCOCC[C@@H](N)C(=O)Nc5cccc6c5CN(C5CCC(=O)NC5=O)C6=O)CC4)cc3OC)nc2N1C1CCCC1` (stereo partly drawn) [Compound 863], the IC50 was 0.1 to 1 µM in the assay with MV4;11 cells; 0.1 to 1 µM in the assay with Daudi cells; not above 1 µM in the assay on NCIH82 cells; more than 1 µM in the assay on HT-29 cells; more than 1 µM with U-87MG cells.
Regarding `CC[C@@H]1C(=O)N(C)c2cnc(Nc3ccc(C(=O)NCCOCCNCCOCCC#Cc4cccc5c4CN(C4CCC(=O)NC4=O)C5=O)cc3OC)nc2N1C1CCCC1` (stereo partly drawn) [Compound 896], the IC50 is 0.1 to 1 µM in the assay with Daudi cells, more than 1 µM in the assay with NCIH82 cells, more than 1 µM in the assay with HT-29 cells and 0.5 to 1 µM with U-87MG cells.
For `CC[C@@H]1C(=O)N(C)c2cnc(Nc3ccc(C(=O)NC4CCN(CCOCCCNCCCC#Cc5cccc6c5CN(C5CCC(=O)NC5=O)C6=O)CC4)cc3OC)nc2N1C1CCCC1` (stereo partly drawn) [Compound 915], the IC50 with MV4;11 cells is not above 0.1 µM; in the assay with Daudi cells, not above 0.1 µM; with NCIH82 cells, not above 1 µM; in the assay with HT-29 cells it was 0.3 to 1 µM; in the assay on U-87MG cells, 0.1 to 0.5 µM.
